Assay results: patent publication US20090110673A1, “METHODS OF REDUCING CELL DEATH FOLLOWING HYPOXIA / REOXYGENATION” (THE UNIVERSITY OF CHICAGO, priority 2006, published 2009)
“And” between values parts separate entries of the source, which are not always exact repeats. Equal entries are not always repeated. “Also recorded” adds a separate entry of the source.

Assays:
[1] = tested on: reactive oxygen species (ROS) in embryonic chick cardiomyocytes; assay: Intracellular ROS (DCF fluorescence) at reperfusion after simulated ischemia; format: cell-based; conditions: for maximal DCF fluorescence intensity: control 2.8±0.2 a.u.
Experimental: (§1) Ventricular embryonic chick cardiomyocytes were prepared according to published procedure. (Vanden Hoek T L, Becker L B, Shao Z, et al. Reactive oxygen species released from mitochondria during brief hypoxia induce preconditioning in cardiomyocytes, J. Biol. Chem. […]; 273:18092-18098, which is incorporated herein by reference). 10-day old chicken embryo hearts were removed, ventricular tissue minced into 0.5 mm fragments, enzymatically dispersed with 0.025% trypsin (Life Technologies, New York, N.Y.), centrifuged, 0.7×10^6 cells were pipetted onto 25 mm coverslips, and incubated with 5% CO2. Coverslips were checked for non-muscle cell contamination. Experiments were performed with 3-5 day cardiac cell cultures, by which time a synchronously contracting layer of cells could be visualized and viability exceeded 95%.
(§2) Coverslips with contracting cells were placed in a 1.2 mL Sykes-Moore perfusion chamber (Bellco Glass Inc., Vineland, N.J.). The chamber and inflow tubing were maintained at 37° C. Perfusate was supplied to the chamber (0.25 ml/min) via stainless steel tubing to minimize diffusive entry of ambient O2.
(§3) Normoxic perfusate used for baseline conditions and for reperfusion subsequent to ischemia contained oxygenated balanced salt solution (BSS) with a PO2 OF 149 torr, PCO2 of 40 torr, pH of 7.4, and [K]^+ of 4.0 mEq/L, and glucose (5.6 mM). To simulate ischemia, the perfusate contained BSS with 2-deoxyglucose (2-DOG) (20 mM) rather than glucose and [K]^+ of 8.0 mEq/L. The ischemic perfusate was equilibrated with 80% N2 and 20% CO2 prior to use to produce a PO2 of ˜5 torr, a PCO2 of 144 torr and a final pH of 6.8.
Intracellular oxidant stress due to ROS was monitored real time with the intracellular probe 2′,7′-dichlorofluorescin diacetate (DCFH-DA, 5 μM, Molecular Probes, Eugene, Oreg.) as described in published literature (Vanden Hoek, F L, et al., Reactive oxygen species released from mitochondria during brief hypoxia induce preconditioning in cardiomyocytes, J. Biol. Chem. […]; 273:18092-18098, which is incorporated by reference herein; Vanden Hoek, T L, et al, Preconditioning in cardiomyocytes protects by attenuating oxidant stress at reperfusion, Circ Res 2000; 86:534-540, which is incorporated by reference herein; Vanden Hoek, T L, Reperfusion, not simulated ischemia initiates intrinsic apoptosis injury in chick cardiomyocytes Am J. Physiol Heart Physiol 2003; 284:H141-150, which is incorporated by reference herein). DCFH-DA is cleaved by cellular esterases upon entry into the cells, trapping the nonfluorescent 2′,7′-dichlorofluorescin (DCFH) inside. ROS, particularly hydrogen peroxide (H2O2) and hydroxyl radical generate the fluorescent product dichlorofluorescein (DCF) by causing the oxidation of DCFH. Increases in DCF fluorescence result from DCFH oxidation to DCF. DCF fluorescence was measured at an excitation wavelength of 480 nm, and a 520 nm band pass emission filter. Attention was focused on the maximal DCF fluorescence intensity value during the first minutes of reperfusion for comparison. All measurements were expressed in arbitrary units (a.u.) of fluorescence.
(§4) For each experiment a field of about 500 cells was observed. Treatment and control groups were matched in sets containing cells isolated and cultured on the same day so as to eliminate variability due to cell batch. Additional 25 mm coverslips were used for replicate experiments (“n”). Results are reported as means plus or minus S.E.M. and two-tailed unpaired t-tests comparing similar time points throughout ischemia and reperfusion were used as tests of significance, with p<0.05 considered to be significant.

[2] = tested on: Ventricular embryonic chick cardiomyocytes; assay: Cell death (propidium iodide viability assay) after simulated ischemia/reperfusion; format: cell-based
Experimental: Ventricular embryonic chick cardiomyocytes were prepared according to published procedure. […] Coverslips were checked for non-muscle cell contamination.
as §2
Cell viability was assessed with the fluorochrome propidium iodide (PI) (5 μM, Molecular Probes, Eugene, Oreg.). PI is excluded from viable cells, but enters cells and binds to chromatin after loss of cell membrane integrity. The cells then become highly fluorescent (excitation wavelength of 540 nm and a 590 nm band pass emission filter). PI was used to quantify cell death throughout the entire time of each experiment. […] All cells in the field studied were stained with PI at the end of the experiment by permeabilizing the cells with digitonin (300 μM). Percent cell death was then calculated as the PI fluorescence at any given time point relative to the maximal fluorescence value seen after digitonin exposure.
as §4

[3] = tested on: Ventricular embryonic chick cardiomyocytes; assay: Return of synchronous cell contraction after simulated ischemia/reperfusion; format: cell-based; conditions: for return of contractions (groups with return/total): no return in control cells
Experimental: as §1, §3
Contractions were assessed by monitoring synchronous movement within the same field of cells as previously reported. A return of contraction following simulated ischemia/reperfusion was indicated when contractions could be seen throughout the field of cells following the three hour period of reperfusion.

[4] = tested on: mitochondrial respiration; assay: Decrease of mitochondrial respiration; conditions: dose administered to achieve protection
[5] = tested on: nitric oxide (NO) generation in embryonic chick cardiomyocytes; assay: NO generation (DAF-2 fluorescence) during ischemia/reperfusion; format: cell-based; conditions: L-NAME 200 μM during I/R, n=8
Experimental: as §1, with “al:” for “al.”, “0.25%” for “0.025%”, “95%. […]” for “95%.”
Endogenous NO generation has been implicated to have both protective and detrimental roles in various in vitro and in vivo models of I/R injury. To test whether endogenous NO was affected by hypocarbic or hypercarbic reperfusion, we continuously monitored the entire course of I/R using the NO indicator DAF-2 DA of cells treated as described in Example 2.
Cells were treated as described in Example 11, and the NO profile and cell viability was assessed in hypercarbic reperfusion compared with hypercarbic reperfusion with 200 μM L-NAME incubated during I/R as described above.

[6] = tested on: reactive oxygen species (ROS) in embryonic chick cardiomyocytes; assay: ROS (DCF fluorescence) during hypocarbic/normocarbic/hypercarbic reperfusion; format: cell-based; conditions: apocynin 300 μM during reperfusion
Experimental: as §1, with “al:” for “al.”, “0.25%” for “0.025%”
To simulate ischemia, the perfusate contained BSS with 2-deoxyglucose (2-DOG) (20 mM) rather than glucose, 18 mM NaCO3 and [K]^+ of 8.0 mEq/L, and was equilibrated with 80% N2 and 20% CO2 to produce a final PO2 of 3-5 torr, PCO2 of 144 torr, and pH 6.8. In addition, 20 mM of glycolytic inhibition 2-deoxyglucose was added to better model adenosine triphosphate depletion.
For perfusion, three perfusate solutions were used: normocarbic reperfusion perfusate, hypocarbic reperfusion perfusate and hypercarbic reperfusion perfusate. […]

[7] = 20 μM NADH isomer at reperfusion

## O=C(O)c1ccc2cc3ccccc3cc2c1 [2-anthracene-carboxylic acid]
[1]; 0.1 μM, first 10 minutes of reperfusion, n=3
  maximal DCF fluorescence intensity: 1.7±0.1 a.u.
[2]; 0.1 μM, first 10 minutes of reperfusion, control 47.1±3.0%, n=5
  I/R induced cell death: 26.1±4.0%
[2]; 1 μM as printed in Example 4, first 10 minutes of reperfusion, control 47.1±3.0%, n=5
  cell death: 26.1±4.0%
[3]; 0.1 μM, first 10 minutes of reperfusion, control 0/7
  return of synchronous contractions (groups with return/total): 5/5
[4]
  decrease of mitochondrial respiration: 10-15%

## CCN(CC)C(=S)S [DDC, diethyldithiocarbamic acid]
[1]; DDC 1 mM during simulated ischemia and first 15-30 min of reperfusion, n=5
  maximal DCF fluorescence intensity: 1.6±0.1 a.u.
[2]; DDC 1 mM during reperfusion, control 49.7±6.7%, n=5
  I/R induced cell death: 15.7±4.7%

## COC(=O)[C@@H](N)CCCNC(=N)N[N+](=O)[O-] [L-NAME, N^G-nitro-L-arginine methyl ester]
[5]
  NO generation (DAF-2 fluorescence) during hypercarbic reperfusion: blocked maintenance of the sustained NO levels; also recorded: reduction of the sustained increase of NO generation

## COc1cc(C(C)=O)ccc1O [apocynin]
[6]; hypocarbic
  ROS burst (DCF fluorescence) in hypocarbic reperfusion: did not attenuate the reperfusion ROS burst; also recorded: increased the ROS burst
[6]; normocarbic
  ROS burst (DCF fluorescence) in normocarbic reperfusion: did not attenuate the reperfusion ROS burst; also recorded: increased the ROS burst

## C=C(C)[C@H]1Cc2c(ccc3c2O[C@@H]2COc4cc(OC)c(OC)cc4[C@@H]2C3=O)O1 [rotenone]
[1]; rotenone 5 μM (representative of all doses), control 2.4±0.3 a.u., n=5
  maximal peak DCF fluorescence intensity (reperfusion ROS): 0.7±0.1 a.u.
[2]; all tested doses of rotenone, including nanomolar doses for first 15 minutes of reperfusion
  protection against I/R injury (cell protection): no tested dose of rotenone conferred cell protection
[2]; rotenone 100 nM, first 15 minutes of reperfusion, control 50.2±3.0%, n=3
  cell death: 61.3±1.6%
[2]; rotenone 1 μM, first 15 minutes of reperfusion, control 50.2±3.0%, n=3
  cell death: 77.4±6.6% and 77.1±6.6%
[2]; rotenone 10 μM, first 15 minutes of reperfusion, control 50.2±3.0%, n=3
  cell death: 66.1±3.4% and 66.2±3.4%

## C/C=C(C)/C=C/C=C/[C@H](OC)[C@@H](C)[C@@H](OC)[C@@H](C)CCc1oc2c(O)c(OC)cc(OC)c2c(=O)c1C [stigmatellin]
[1]; stigmatellin 100 μM, first 15 min of reperfusion
  reperfusion ROS: ROS was abrogated
[1]; stigmatellin 2-20 nM, first 15 min of reperfusion, control 2.4±0.3 a.u., n=5
  maximal peak DCF fluorescence intensity: 0.46±0.02 a.u.
[1]; stigmatellin given during the whole 3 hour course of reperfusion
  reperfusion ROS: ROS was attenuated
[2]; stigmatellin 20 nM, first 15 minutes of reperfusion, control 50.2±3.0%, n=3
  cell death: 20.3±5.0%
[2]; stigmatellin 100 μM, 3 hours of reperfusion, control 50.2±3.0%, n=3
  cell death: 80.1±6.0%
[2]; stigmatellin 100 μM, first 15 minutes of reperfusion, control 50.2±3.0%, n=3
  cell death: 52.3±3.0%
[2]; stigmatellin 2-20 nM, first 15 min of reperfusion, control 53.8±3.5%, n=5
  I/R cell death: 10.8±2.9%
[3]; stigmatellin 2-20 nM, first 15 minutes of reperfusion
  return of contractions (groups with return/total): 5/5

## NC(=O)C1=CN([C@H]2O[C@H](COP(=O)(O)OP(=O)(O)OC[C@H]3O[C@@H](n4cnc5c(N)ncnc54)[C@H](O)[C@@H]3O)[C@@H](O)[C@H]2O)C=CC1 [α-NADH]
[1]; α-NADH 20 μM co-treated with β-NADH 20 μM
  effect on β-NADH induced increase in ROS: blocked this increase in ROS; also recorded: reversal of the increase was observed
[2]; exogenous α-NADH 20 μM, control 47.1±3.0%, n=5
  I/R cell death: 13.8±1.3%
[3]; [7]
  return of contractions (groups with return/total): 5/5

## NC(=O)C1=CN([C@@H]2O[C@H](COP(=O)(O)OP(=O)(O)OC[C@H]3O[C@@H](n4cnc5c(N)ncnc54)[C@H](O)[C@@H]3O)[C@@H](O)[C@H]2O)C=CC1 [β-NADH]
[1]; exogenous β-NADH 20 μM, first 10 minutes of reperfusion, control 86.2±19.6%, n=8
  percent increase in ROS generation during reperfusion over ischemia: 511±123%
[2]; exogenous β-NADH 20 μM, first 10 minutes of reperfusion
  I/R cell death versus control: showed no benefit
[3]; [7]
  return of contractions (groups with return/total): absence of contractile return
